Assays:
HIV (HTLV III Ba-L) = experiment: HIV replication in primary cultures of human monocytes (viral protein P24 in supernatants, day 7); format: cell-based
Method: Some cultures were treated with different concentrations of the compounds either 1 day before, or the same day, or 1 day after inoculation with HIV. The replication of the virus was evaluated on day 7 by measurement of the quantity of viral protein P24 in the supernatants as described in Blood, Vol. 76, page 1490-1493, 1990.

[1] = Clinical trials: tolerance in healthy volunteers and cancer subjects; format: in vivo, man
macrophages in culture = experiment: Proliferation of cultured macrophages (3H-thymidine incorporation); format: cell-based, human; conditions: for inhibition of proliferation of macrophages stimulated with the combination IL-3/GM-CSF / inhibition of proliferation of macrophages stimulated with IL-3: 1 μg/ml; for inhibition of proliferation of macrophages stimulated with the combination IL-3/GM-CSF: hr IL-3 and hr GM-CSF stimulated; for inhibition of proliferation of macrophages stimulated with IL-3: hr IL-3 stimulated, compound added a day before 3H-thymidine; for inhibition of spontaneous proliferation: without stimulation
Method: For that, monocytes collected from a donor are cultured for 5 days either a) without stimulation (so as to evaluate their spontaneous proliferation level) or b) in the presence of human recombinant interleukin-3 (hr IL-3) or c) in the presence of both hr IL-3 and hr GM-CSF human recombinant granulocyte-macrophage colony stimulating factor. These two treatments make it possible to obtain a high level of proliferation. The compounds of the invention are added to the culture medium a day before the addition of tritiated thymidine (^3H-thymidine). The dividing cells incorporate this thymidine. The cells (which have differentiated into macrophages during the duration of the culture) are recovered and washed, and the proliferation level is evaluated by measuring, in a beta counter, the quantity of ^3H incorporated according to conventional methods as described in Blood, Vol. 76, pages 1490-1493, 1990.

HIV [2] = conditions: cited from earlier work
guinea pig macrophages = conditions: cited from earlier work
HIV [3] = conditions: in vitro, 1000 μg/ml; cited from earlier work

Row | Compound | side effects in man [1] | tolerance in man [1] | inhibition of proliferation of macrophages stimulated with the combination IL-3/GM-CSF (macrophages in culture) | inhibition of proliferation of macrophages stimulated with IL-3 (macrophages in culture) | inhibition of spontaneous proliferation (macrophages in culture; 10 μg/ml) | further results
1 | COC(=O)[C@@H](CCC(N)=O)NC(=O)[C@H](C)NC(=O)[C@@H](C)O[C@H]1[C@H](O)[C@@H](CO)OC(O)[C@@H]1NC(C)=O (stereo partly drawn) [Murametide, Nac-Mur-L-Ala-DGln OMe] | free of side effects | very good tolerance | inhibiting the proliferation | inhibiting the proliferation | inhibition of spontaneous proliferation was observed | suppression of viral replication (HIV (HTLV III Ba-L); 50 μg/ml, regardless of the time of treatment): 100%; suppression of viral replication (HIV (HTLV III Ba-L); different concentrations, treatment 1 day before, same day or 1 day after inoculation): highly significant suppression of viral replication; inhibition of spontaneous proliferation (macrophages in culture; 50 μg/ml): inhibition of spontaneous proliferation was observed
2 | CCCCCCCCCCCCCCCC(=O)OC[C@H](COP(=O)(O)OCCNC(=O)[C@H](C)NC(=O)CC[C@@H](NC(=O)[C@H](C)NC(=O)[C@@H](C)O[C@@H]([C@H](O)[C@H](O)CO)[C@H](C=O)NC(C)=O)C(N)=O)OC(=O)CCCCCCCCCCCCCCC [MTP-PE] | – | – | – | – | – | activity on viral replication (HIV [2]; compound added a day before or 4 days after): minimal; total suppression of viral replication (HIV [2]; free form or incorporated into liposomes): not capable; reduction in viral replication (HIV [2]; free form, added repeatedly before and after HIV infection): only a partial reduction in viral replication
3 | CCCCOC(=O)[C@@H](CCC(N)=O)NC(=O)[C@H](C)NC(=O)[C@@H](C)O[C@H]1[C@H](O)[C@@H](CO)OC(O)[C@@H]1NC(C)=O (stereo partly drawn) [Murabutide, Nac-Mur-L-Ala-DGln OnC4H9] | free of side effects | very good tolerance | inhibiting the proliferation | inhibiting the proliferation | inhibition of spontaneous proliferation was observed | inhibition of viral replication (HIV (HTLV III Ba-L); 10 to 50 μg/ml, treatment on day -1, day 0 or day +1 relative to infection, P24 on day 7): completely inhibits viral replication
4 | N-acetyl-muramyl-L-alanyl-D-Isoglutamine [MDP] | – | – | – | – | – | inhibition of the proliferation of guinea pig macrophages (guinea pig macrophages): capable of inhibiting the proliferation; inhibition of the replication of HIV (HIV [3]): partially inhibiting the replication of HIV
